A short description of the data set: Visual solubility in organic solvent on successive addition of water. The data set is classed as physicochemical. Conditions: 1 mg/100 μl in THF, ACN, acetone, DMSO, DMF, methanol, ethanol; 10 μl water added successively until precipitation. The protocol: If the active compound is insoluble in an organic solvent, this solvent is less suitable for the production of nanoparticles. If a clear solution is formed, in each case equal defined amounts of aqueous solvent are added stepwise and mixed in each case until precipitation of the active compound is visible after addition and mixing (visual solubility). The assessment of visual solubility is carried out visually in a suitable container, preferably in a glass tube having a small diameter, for example as are customary in gas chromatography (diameter of 0.5 cm, height 3 cm), under cold light, which preferably radiates upward, against a dark surface, preferably against a black surface, as background. A diagrammatic representation of the procedure is depicted in FIG. 1.
For loading experiments, the active compounds dexamethasone and 5-[2-(2-fluorophenyl)-1,8-naphthyridin-4-yl]-2,6-naphthyridin-1-ylamine (also called active compound B below) were used. For solvent selection, the active compounds were each dissolved in the following solvents with a concentration of 1 mg/100 μl: tetrahydrofuran (THF), acetonitrile (ACN), acetone, dimethyl sulfoxide (DMSO), dimethylformamide (DMF), methanol, ethanol. Additionally, 0.1% of trifluoroacetic acid (v/v) were added to each organic solution of active compound B in order to establish an apparent “pH”. […]

Turning to `C[C@@H]1C[C@H]2[C@@H]3CCC4=CC(=O)C=C[C@]4(C)[C@@]3(F)[C@@H](O)C[C@]2(C)[C@@]1(O)C(=O)CO` [dexamethasone], the visual solubility result is recorded as “increased visual solubility in tetrahydrofuran”.

For the origin of these results see US10561733B2, “Process for producing nanoparticles laden with active ingredient” (Merck Patent GmbH, priority 2012, dated 2020).
